Measurements taken from patent US20250275953A1, “VODOBATINIB FOR REDUCING PROGRESSION OF PARKINSON'S DISEASE” (Sun Pharma Advanced Research Company Ltd., priority 2022, published 2025).
Where two headings read alike, the source gives them in different places.

How the values were obtained:
[1] = Plasma pharmacokinetics, 7 once-daily oral doses, healthy volunteers; format: in vivo, human; conditions: male, human, plasma, oral
Experimental: After 28 days of screening, the subjects were studied in sequential cohorts of 6 subjects each. The study was conducted for 17 days. […] After the dose, subjects continued to fast for additional 4 hours, water was allowed ad libitum with the exception of 1 hour prior and 1-hour post dose.
The plasma and CSF samples were analyzed, by validated LC/MS-MS methods. PK analysis was conducted based on PK/PP Population: Cmax, AUC0-t, AUC0-24, AUC0-∞, Tmax, Cavg, CL/F, Cmin, t1/2, Kel, Vd (V/F; Vd/F), and Vss/F. Model-independent plasma PK parameters (Cmax, Tmax, t1/2, AUC0-t, AUC0-24, AUC0-∞, Cavg, CL/F, Vss/F, Vd/F), after the first dose (Day 1) and last dose (Day 7), Cmin on Days 2-7) was listed by subject and summarized by study cohort. In addition to the descriptive statistics listed above, geometric means was reported for the pivotal PK endpoints (CL/F, Vss/F, Vd/F, Cmin, Cavg, AUC0-t, AUC0-24, AUC0-∞, and Cmax). For CSF, PK parameters (Cmax, Tmax, t1/2, AUC0-t, AUC0-24, Cmin, Cavg, CL/F, Vss/F) was listed by subject and summarized by cohort. Ratios of CSF: plasma concentration at each time point was listed by subject and summarized by study cohort.
Forty-one healthy adult male volunteers aged 18 to 45 with body mass indexes (BMI)≥18 to ≤30 Kg/m^2 and total body weight >50 kg (110 lb) were screened in order to enroll 19 subjects with an average age of 34.2 years (range 21.5-45.6 years) into this study Six participants were randomly assigned to the 48 and 192 mg cohorts, and seven participants were assigned to the 384 mg cohort. After an overnight fast, participants received once daily doses of vodobatinib as capsules for 7 days. Serial PK blood samples to measure vodobatinib plasma concentrations were collected at pre-dose and at 0.25, 0.5, 1, 1.5, 2, 2.5, 3, 4, 6, 8, 12, 16 and 24 h post-dose after the first dose on Day 1 and the last dose on day 7. Additional PK samples prior to the morning doses were taken on Days 3-6. On the morning of Day 7, prior to dosing, an indwelling intrathecal catheter was inserted in the lumbar region (L3-L5). Serial CSF samples were collected through the catheter connected via peristaltic pump to a fraction collector. At each designated CSF collection time point, 8 mL of CSF was collected at a flow rate of 0.5 mL/min over a 16-min period at pre-dose, and 0.5, 1.0, 1.5, 2, 2.5, 3, 4, 6, 8, 12 and 24 h post-dose. The first 2 mL of CSF was discarded, and the remaining 6 mL was used for the vodobatinib assay. The occurrence of treatment-emergent adverse events (TEAEs) and serious AEs (SAEs) reported through the completion of study were collected.

Abl = Abl (Homo sapiens, UniProt P00519); assay: Biochemical kinase assay, native Abl (radiometric substrate phosphorylation)
Chain of Abl (P00519 whole entry): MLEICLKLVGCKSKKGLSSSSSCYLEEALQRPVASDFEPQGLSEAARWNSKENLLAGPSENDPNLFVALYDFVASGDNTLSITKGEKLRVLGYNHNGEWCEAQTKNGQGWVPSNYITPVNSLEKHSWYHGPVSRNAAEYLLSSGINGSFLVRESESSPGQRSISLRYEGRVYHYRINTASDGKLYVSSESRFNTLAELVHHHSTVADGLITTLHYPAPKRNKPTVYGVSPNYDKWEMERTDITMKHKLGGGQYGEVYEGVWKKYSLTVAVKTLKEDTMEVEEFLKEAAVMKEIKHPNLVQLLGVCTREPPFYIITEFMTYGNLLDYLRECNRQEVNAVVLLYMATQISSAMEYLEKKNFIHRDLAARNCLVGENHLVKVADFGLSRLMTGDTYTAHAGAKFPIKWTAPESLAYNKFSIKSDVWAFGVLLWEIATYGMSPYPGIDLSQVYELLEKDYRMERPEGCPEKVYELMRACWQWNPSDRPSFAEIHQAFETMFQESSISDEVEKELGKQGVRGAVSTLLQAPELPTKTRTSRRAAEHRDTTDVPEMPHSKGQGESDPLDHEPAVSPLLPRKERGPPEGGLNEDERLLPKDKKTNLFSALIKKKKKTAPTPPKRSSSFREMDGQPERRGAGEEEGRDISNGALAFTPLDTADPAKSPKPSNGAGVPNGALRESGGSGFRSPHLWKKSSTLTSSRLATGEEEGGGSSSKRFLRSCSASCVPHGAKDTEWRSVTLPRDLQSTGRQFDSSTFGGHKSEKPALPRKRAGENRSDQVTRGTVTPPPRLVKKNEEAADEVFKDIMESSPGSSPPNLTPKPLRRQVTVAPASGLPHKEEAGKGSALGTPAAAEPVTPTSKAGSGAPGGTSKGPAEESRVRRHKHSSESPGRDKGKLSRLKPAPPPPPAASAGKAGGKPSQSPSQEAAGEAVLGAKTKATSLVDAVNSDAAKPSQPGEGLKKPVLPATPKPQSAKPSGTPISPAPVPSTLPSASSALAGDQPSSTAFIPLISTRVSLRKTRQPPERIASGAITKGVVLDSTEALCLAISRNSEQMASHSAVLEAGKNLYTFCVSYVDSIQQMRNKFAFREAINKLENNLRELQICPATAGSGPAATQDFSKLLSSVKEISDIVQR
Experimental: Conventional biochemical kinase assays, using radioactivity and fluorescence as readouts, were used to derive half maximal-inhibitory concentrations (IC50) values.
Inhibition of c-Abl kinase activity by vodobatinib was determined in a radiometric detection assay using γ-33P-labeled-ATP. […] (Abl substrate peptide), 10 mM magnesium acetate, and [γ-33P-ATP]. The reaction was initiated by addition of an MgATP mix. Following incubation for 40 minutes at room temperature, the reaction was stopped by addition of 3% phosphoric acid solution. The radiolabeled substrate was separated onto a P30 filtermat, which was washed with 75 mM phosphoric acid and methanol, and dried, following which radioactivity incorporated into the substrate was determined by scintillation counting. Similar assessments were also carried out using recombinant murine c-Abl enzyme using the identical assay format as described above.

In the case of `Cc1ccc(C(=O)NNC(=O)c2c(C)cccc2Cl)cc1C#Cc1cnc2ccccc2c1` [N′-(2-chloro-6-methylbenzoyl)-4-methyl-3-[2-(3-quinolyl)ethynyl]-benzohydrazide], the Cmax ([1]; 192 mg, Day 1, plasma, healthy volunteers, read-out: Cmax GM) is reported as 3550 ng/mL, the Cmax ([1]; 192 mg, Day 1, plasma, healthy volunteers, read-out: Cmax Median) is reported as 3180 ng/mL and the Cmax ([1]; 192 mg, Day 1, plasma, healthy volunteers, read-out: Cmax Min, Max) is reported as 2740 to 7190 ng/mL. For the same compound, the Tmax ([1]; 192 mg, Day 1, plasma, healthy volunteers, read-out: Tmax Median) was 3.5 h, the Tmax ([1]; 192 mg, Day 1, plasma, healthy volunteers, read-out: Tmax Min, Max) was 1.62 to 4 h and the Cmax ([1]; 192 mg, Day 7, plasma, Healthy Subjects, Table 10, read-out: Cmax Mean) was 5380 ng/mL. For the same compound, the Tmax ([1]; 192 mg, Day 7, plasma, Healthy Subjects, Table 10, read-out: Tmax median (range)) was 4 h, the AUC(0-t) ([1]; 192 mg, Day 7, plasma, Healthy Subjects, read-out: AUC0-24 Mean) was 44100 ng·h/mL and the AUC(0-t) ([1]; 192 mg, Day 7, plasma, healthy volunteers, read-out: AUC0-24 AM) was 44100 ng·h/mL. The AUC(0-t) ([1]; 192 mg, Day 7, plasma, healthy volunteers, read-out: AUC0-24 GM) was 39100 ng·h/mL, the AUC(0-t) ([1]; 192 mg, Day 7, plasma, healthy volunteers, read-out: AUC0-24 Median) was 40100 ng·h/mL and the AUC(0-t) ([1]; 192 mg, Day 7, plasma, healthy volunteers, read-out: AUC0-24 Min, Max) was 20700 to 91500 ng·h/mL. For the same compound, the Cmax ([1]; 192 mg, Day 7, plasma, healthy volunteers, read-out: Cmax AM) was 5380 ng/mL, the Cmax ([1]; 192 mg, Day 7, plasma, healthy volunteers, read-out: Cmax GM) was 5020 ng/mL and the Cmax ([1]; 192 mg, Day 7, plasma, healthy volunteers, read-out: Cmax Median) was 4690 ng/mL. The Cmax ([1]; 192 mg, Day 7, plasma, healthy volunteers, read-out: Cmax Min, Max) was 3120 to 10100 ng/mL, the Tmax ([1]; 192 mg, Day 7, plasma, healthy volunteers, read-out: Tmax Median) was 4 h and the Tmax ([1]; 192 mg, Day 7, plasma, healthy volunteers, read-out: Tmax Min, Max) was 4.01 to 4.08 h. For the same compound, the Cmax ([1]; 384 mg, Day 1, plasma, Healthy Subjects, Table 10, read-out: Cmax Mean) was 6630 ng/mL, the Tmax ([1]; 384 mg, Day 1, plasma, Healthy Subjects, Table 10, read-out: Tmax median) was 4 h and the AUC(0-t) ([1]; 384 mg, Day 1, plasma, Healthy Subjects, read-out: AUC0-24 Mean) was 47600 ng·h/mL. It also gave an AUC(0-t) ([1]; 384 mg, Day 1, plasma, healthy volunteers, read-out: AUC0-24 AM) of 47600 ng·h/mL, an AUC(0-t) ([1]; 384 mg, Day 1, plasma, healthy volunteers, read-out: AUC0-24 GM) of 35500 ng·h/mL and an AUC(0-t) ([1]; 384 mg, Day 1, plasma, healthy volunteers, read-out: AUC0-24 Median) of 41900 ng·h/mL. For the same compound, the AUC(0-t) ([1]; 384 mg, Day 1, plasma, healthy volunteers, read-out: AUC0-24 Min, Max) was 6640 to 105000 ng·h/mL, the Cmax ([1]; 384 mg, Day 1, plasma, healthy volunteers, read-out: Cmax AM) was 6630 ng/mL and the Cmax ([1]; 384 mg, Day 1, plasma, healthy volunteers, read-out: Cmax GM) was 5390 ng/mL. The Cmax ([1]; 384 mg, Day 1, plasma, healthy volunteers, read-out: Cmax Median) was 5580 ng/mL, the Cmax ([1]; 384 mg, Day 1, plasma, healthy volunteers, read-out: Cmax Min, Max) was 1490 to 13700 ng/mL and the Tmax ([1]; 384 mg, Day 1, plasma, healthy volunteers, read-out: Tmax Median) was 4 h. For the same compound, the Tmax ([1]; 384 mg, Day 1, plasma, healthy volunteers, read-out: Tmax Min, Max) was 1.5 to 6 h, the Cmax ([1]; 384 mg, Day 7, plasma, Healthy Subjects, Table 10, read-out: Cmax Mean) was 7850 ng/mL and the Tmax ([1]; 384 mg, Day 7, plasma, Healthy Subjects, Table 10, read-out: Tmax median (range)) was 3.5 h. It also gave an AUC(0-t) ([1]; 384 mg, Day 7, plasma, Healthy Subjects, read-out: AUC0-24 Mean) of 54900 ng·h/mL, an AUC(0-t) ([1]; 384 mg, Day 7, plasma, healthy volunteers, read-out: AUC0-24 AM) of 54900 ng·h/mL and an AUC(0-t) ([1]; 384 mg, Day 7, plasma, healthy volunteers, read-out: AUC0-24 GM) of 42100 ng·h/mL. It also gave an AUC(0-t) ([1]; 384 mg, Day 7, plasma, healthy volunteers, read-out: AUC0-24 Median) of 50000 ng·h/mL, an AUC(0-t) ([1]; 384 mg, Day 7, plasma, healthy volunteers, read-out: AUC0-24 Min, Max) of 11500 to 125000 ng·h/mL and a Cmax ([1]; 384 mg, Day 7, plasma, healthy volunteers, read-out: Cmax AM) of 7880 ng/mL. The Cmax ([1]; 384 mg, Day 7, plasma, healthy volunteers, read-out: Cmax GM) was 6650 ng/mL, the Cmax ([1]; 384 mg, Day 7, plasma, healthy volunteers, read-out: Cmax Median) was 6500 ng/mL and the Cmax ([1]; 384 mg, Day 7, plasma, healthy volunteers, read-out: Cmax Min, Max) was 2870 to 17900 ng/mL. The Tmax ([1]; 384 mg, Day 7, plasma, healthy volunteers, read-out: Tmax Median) was 3.5 h, the Tmax ([1]; 384 mg, Day 7, plasma, healthy volunteers, read-out: Tmax Min, Max) was 2.52 to 4.03 h and the “times more potent than nilotinib” value (Abl; 0.9 nM vs 20 nM) was 20. It also gave an IC50 (Abl; Table 1) of 0.9 nM.
